Legend:
[1] = tested on: sunflower tumors and callus; test: Sunflower tumor and callus tolerance to glyphosate; format: cell-based
Source text: The following procedures are utilized to obtain transformed sunflower tissue and shoots. Tumors are incited on sterile sunflower seedlings. Sunflower seeds are surface sterilized with 40% Chlorox and sterile distilled water rinses. The seeds are germinated on an agar medium containing B5 salts, 0.5% sucrose and 0.8% agar. Seven-day old seedlings are inoculated with overnight cultures of Agrobacterium strains carrying pTiB6S3-SE by scoring the internode or stabbing the internode with a syringe and using another syringe to introduce the bacteria into the wound. Tumors form in 2-3 weeks. The tumors are removed from the seedlings and grown independently on MS medium without hormones. Transformed callus and shoots are also obtained following a different procedure. Seeds are surface sterilized and placed on the germination medium above. Germination is carried out in the light for 10 days. Hypocotyl segments, 2-3 mm are, excised and inoculated with Agrobacterium strains containing engineered constructs. The hypocotyls are co-cultured for 2 days on a medium containing MS salts and vitamins, 5 g/l KN03, 100 mg/l inositol, 40 mg/l adenine sulfate, 500 mg/l casamino acids, 1 mg/l NAA, 1 mg/l BA, 0.1 mg/l GA3, […] and 8 gm/l agar. After co-culture, the hypocotyls are placed on the same medium but containing 300 mg/l kanamycin and 500 mg/l carbenicillin.
A. tumefaciens containing binary vectors pMON546 and helper plasmid pTiB6S3-SE are used to produce tumors and callus and regenerated plants.

cotton tumor tissue = test: Cotton tumor tissue growth on medium containing glyphosate; format: cell-based; settings: 0.5 mM glyphosate
Description: A plant transformation vector similar to pMON546 is prepared following the general procedure outlined in Example 1 except that the CTP/EPSPS coding sequence is obtained from cotton. Seeds of cotton (cultivator Delta Pine 50) are surface sterilized using sodium hypochlorite and germinated in vitro on a basal medium in the dark. After 2 weeks hypocotyls and cotyledons are cut into pieces and innoculated with a tumorous strain of A. tumefaciens containing the above described transformation vector and helper plasmid pGV3111. After 3 days coculture on MS basal medium, the explants are transferred to the same medium with 500 mg/l carbenicillin to kill the bacteria. After 2 to 4 weeks, tumor tissue is transferred to the same medium containing 0.5 mM glyphosate.
Control tissue was produced using tumorous A. tumefaciens cells containing the helper plasmid pGV3111 and pMON200.

[2] = tested on: leaf tissue from transgenic shoots of B. napus; test: Oil seed rape leaf tissue tolerance test on medium with glyphosate; format: cell-based, Brassica napus; settings: 0.5 mM glyphosate
Description: The four terminal intervals from B. napus plants (growth chamber grown in soil) are surface sterilized in sodium hypochlorite and cut into 5 mm sections. The upper surface of each piece is inoculated with an overnight liquid culture of A. tumefaciens containing the above described transformation vector and helper plasmid pTiT37-SE and incubated for 2 to 3 days on nurse culture plates containing 1/10 MS medium with 1 mg/l BA. The explants are then transferred to MS medium containing 1 mg/l BA, 500 mg/l carbenicillin and 100 mg/l kanamycin. After 3 to 6 weeks, leaf tissue from transgenic shoots that have developed is transferred to the same medium but with 0.5 mM glyphosate instead of the kanamycin to test for tolerance.
Control tissue is prepared using A. tumefaciens cells containing helper plasmid pTiT37-SE and vector pMON200.

soybean callus = test: Soybean callus growth on MS medium with glyphosate; format: cell-based, Glycine canescens
Description: Sterile hypocotyl pieces of Glycine canescens, a type of soybean, were infected with the A. tumefaciens strain containing the chimeric EPSPS gene as described in Example 2. Nurse culture plates were made which contained a medium of 10% of the normal level of MS salts (GIBCO), B5 vitamins, 3 g/l sucrose, 2 mg/l napthalene acetic acid, 1 mg/l benzyladenine, and 0.5 mM arginine. The pH was adjusted to 5.7 before autoclaving.
The infected soybean hypocotyls were incubated at 26° C. for two days and transferred to a similar medium (except that the MS salts were not diluted) and additionally containing 500 mg/l carbenicillin, 100 mg/l cefotaxime and 100 mg/l kanamycin. Under these conditions, only transformed soybean callus was able to grow.
Control tissue was produced using A. tumefaciens cells containing the helper Ti plasmid pTiT37-SE and a plant transformation vector pMON200. See Fraley et al, Biotechnology Vol. 3, 1985, described herein. The co-integrate pTiT37-SE contained a T-DNA region with a NOS/NPTII/NOS kanamycin resistance gene and a NOS scorable marker gene identical to pMON200, but without the CaMV 35S/EPSPS/NOS gene.
After 14-17 days, soybean callus transformed with either the vector alone (pMON200 plasmid) or with the vector containing a chimeric EPSPS gene was transferred to petri dishes containing MS medium and 0, 0.5 mM or 1.0 mM glyphosate.
Within 18-20 days after transfer to the media containing glyphosate, actively growing callus tissue appeared in all dishes containing no glyphosate.

Structure (SMILES): O=C(O)CNCP(=O)(O)O [glyphosate, N-phosphonomethylglycine]
- callus response ([1]; callus without the glyphosate resistance gene): kill callus without the glyphosate resistance gene
- tumor response ([1]; control tumors which do not contain the glyphosate resistance gene): bleach and kill control tumors
- callus tolerance ([1]; non-tumorous callus transformed with pMON546): show tolerance to levels of glyphosate
- tumor tolerance ([1]; tumors produced with pMON546): exhibit tolerance to glyphosate
- tissue growth (cotton tumor tissue; pMON200 transformed tissue (control) and non-transformed tissue): is inhibited
- tissue growth (cotton tumor tissue; tissue transformed with cotton CTP/EPSPS vector): demonstrates glyphosate resistance by continuing growth
- tissue growth ([2]; transformed (pMON200) and non-transformed controls): are inhibited
- tissue growth ([2]; transgenic tissue that expresses EPSPS): are able to grow in the presence of glyphosate
- callus growth (soybean callus; callus colonies containing the chimeric EPSPS gene, 0.5 mM glyphosate, 18-20 days): showed definite growth
- callus growth (soybean callus; control callus (pMON200 vector alone), 0.5 mM glyphosate, 18-20 days): little growth in the dishes containing control callus
- callus growth (soybean callus; control tissues (pMON200), 1.0 mM glyphosate): no callus growth from the control tissues
- callus growth (soybean callus; transformed callus containing the chimeric EPSPS gene, 1.0 mM glyphosate): some growth of the transformed callus
